The text below walks through data of patent US7691601B2, “Medium for detecting and/or identifying of microorganisms” (priority 2003, dated 2010).

For one experiment, the system named is Salmonella Paratyphi A. Kind of experiment: Coloration of Salmonella Paratyphi A colonies on detection medium. The experiment is classed as cell-based. More on the design: key: 0=no coloration; 0.5=trace of coloration; 1=weak coloration; 2=strong coloration. The protocol: (§1) Preparation of the detection medium: A volume of 250 ml of detection medium is prepared from a powdered medium having the following composition:
Melting is carried out at 100° C., and the medium is autoclaved at 121° C. for 15 minutes. The additives are then added to the medium: Magenta C8 (500 mg/l; B-7102, BIOSYNTH, Staad, Switzerland); X-glucoside (75 mg/l; B-7250, BIOSYNTH, Staad, Switzerland); cefsulodine (10 mg/l; C 4786, Sigma, St Quentin Fallavier, France) and various concentrations of the inhibitor O,O-diethyl p-nitrophenyl phosphate (Paraoxon® ethyl; CAS No. 311-45-5; 36186, Riedel-de Haën, St Quentin Fallavier, France; 0; 1; 5 or 10 mg/l).
The various detection media thus obtained are then poured into Petri dishes.
(§2) Seeding of Salmonella bacteria: 10 μl of stools are deposited onto a Petri dish, this stool suspension is mixed or not mixed with 10 μl of a suspension of Salmonella (0.5 McF) and isolated as 3 dials on a Petri dish. Various […] and various Salmonella strains originating from the applicant's collection are used according to this protocol. The Petri dishes are incubated at 37° C. for 24 hours. The appearance of a coloration at the point of deposit of the stool (“deposit” column) and at the Salmonella colony (“colony” column) is read according to a semi-quantitative scale: • 0=no coloration • 0.5=trace of coloration • 1=weak coloration • 2=strong coloration The results obtained are given in Table 1.
(§3) Preparation of the detection medium: 250 ml of the medium of Example 1, in which the O,O-diethyl p-nitrophenyl phosphate is replaced with various concentrations of O,O-di-(2-chloroethyl)-O-(3-chloro-4-methylcoumarin-7-yl)phosphate (Haloxon®; CAS No. 321-55-1; R276995, Sigma, St Quentin Fallavier, France; 0; 1; 10; 100 or 1000 mg/l), are prepared according to the method of Example 1.
(§4) The various selection media thus obtained are then poured into Petri dishes.
(§5) Seeding of Salmonella bacteria: The Petri dishes are inoculated, incubated and read as in Example 1.

Experiment [1] in a line: Colonies column read for stool without added strain, Candida detection medium. Further details: key: 0=absence of coloration; 0.5=trace coloration; 1=weak coloration; 2=strong coloration. The conditions noted are these: Table 4, no strain. The protocol: as §1
(§6) Melting is carried out at 100° C., and the medium is autoclaved at 121° C. for 15 minutes. The additives are then added to the medium: Magenta C8 (500 mg/l; B-7102, BIOSYNTH, Staad, Switzerland); X-glucoside (75 mg/l; B-7250, BIOSYNTH, Staad, Switzerland); cefsulodine (10 mg/l; C 4786, Sigma, St Quentin Fallavier, France), and also the esterase inhibitor: • ? O,O-diethyl p-nitrophenyl phosphate: 5 mg/l • ? O,O-dimethyl p-nitrophenyl phosphate: 25 mg/l or • ? O,O-di-(2-chloroethyl)-O-(3-chloro-4-methylcoumarin-7-yl)phosphate: 75 mg/l
as §4
(§7) Seeding of yeast of the Candida genus: 10 μl of stools are deposited onto a Petri dish, and this stool suspension is mixed or not mixed with 10 μl of a suspension of Candida and isolated as 3 dials on a Petri dish. Various stools and various strains of Candida genus originating from the applicant's collection are used according to this protocol. The Petri dishes are incubated at 37° C. for 24 hours.
(§8) The appearance of a coloration at the point of deposit of the stool and in the Candida colonies is read according to a semi-quantitative scale: • 0=absence of coloration • 0.5=trace coloration • 1=weak coloration • 2=strong coloration.

For a further experiment, the system named is Salmonella bacteria. In words: Enzymes originating from the bacteria (Salmonella colonies), overall statement. The experiment is classed as cell-based. The following applies: summary in words. Here is the method:
as §2, §3, §4, §5

Experiment [2] deals with free esterases in stools. In words: Coloration at the point of deposit of the stool on Candida detection medium. The experiment is classed as biochemical. The following applies: Table 4. More on the design: key: 0=no coloration; 0.5=trace of coloration; 1=weak coloration; 2=strong coloration. Here is the method:
as §1, §6, §4, §7, §8

The next experiment relates to Candida albicans. Kind of experiment: Coloration of Candida albicans colonies on detection medium. The format is cell-based. Further details: key: 0=no coloration; 0.5=trace of coloration; 1=weak coloration; 2=strong coloration. The following applies: stool A. The protocol:
as §1, §6, §4, §7, §8

Experiment [3] deals with Candida dubliniensis. Kind of experiment: Coloration of Candida dubliniensis colonies on detection medium. Further details: key: 0=no coloration; 0.5=trace of coloration; 1=weak coloration; 2=strong coloration. The format is cell-based. Here is the method: as §1, §6, §4, §7, §8
Experiment [4] relates to free esterases in stools. Kind of experiment: Coloration at the point of deposit of the stool on Candida detection medium. The experiment is classed as biochemical. Further details: key: 0=absence of coloration; 0.5=trace coloration; 1=weak coloration; 2=strong coloration. The conditions noted are these: Table 4, no strain. Here is the method: as §1, §6, §4, §7, §8
Experiment [5] concerns Candida dubliniensis. Kind of experiment: Coloration of Candida dubliniensis colonies on detection medium. The experiment is classed as cell-based. More on the design: key: 0=absence of coloration; 0.5=trace coloration; 1=weak coloration; 2=strong coloration. The following applies: Table 4, 5 mg/l. The protocol:
as §1, §6, §4, §7, §8

With `Cc1c(Cl)c(=O)oc2cc(OP(=O)(OCCCl)OCCCl)ccc12` [O,O-di-(2-chloroethyl)-O-(3-chloro-4-methylcoumarin-7-yl) phosphate], the Colonies coloration in the experiment with Salmonella Paratyphi A (Table 3, 1 mg/l, stool A) was 2; in the experiment with Salmonella Paratyphi A (Table 3, 1 mg/l, stool B), 2; with Salmonella Paratyphi A (Table 3, 10 mg/l, stool A), 2; in the experiment with Salmonella Paratyphi A (Table 3, 10 mg/l, stool B), 2; in the experiment on Salmonella Paratyphi A (Table 3, 100 mg/l, stool A), 1; in the experiment with Salmonella Paratyphi A (Table 3, 100 mg/l, stool B) it was 1. Also, the Colonies coloration in the experiment with Salmonella Paratyphi A (Table 3, 1000 mg/l, stool A) amounted to 0.5; in the experiment with Salmonella Paratyphi A (Table 3, 1000 mg/l, stool B), 0.5; in experiment [1] (75 mg/l, stool A), 0; in experiment [1] (75 mg/l, stool B), 0; with Candida albicans (Table 4, 75 mg/l), 1; with Candida dubliniensis [3] (Table 4, 75 mg/l, stool A), 1. In the experiment on Candida dubliniensis [3] (Table 4, 75 mg/l, stool B), this molecule gave a Colonies coloration of 1. Besides, the “Enzymes originating from the bacteria” value in the experiment with Salmonella bacteria was “not inhibited”. Further, the Deposit coloration in the experiment with free esterases in stools [2] (75 mg/l, stool A, Candida albicans) is given as 1; with free esterases in stools [2] (75 mg/l, stool A, Candida dubliniensis) it was 1; in the experiment on free esterases in stools [2] (75 mg/l, stool A, Candida krusei), 1; in the experiment with free esterases in stools [2] (75 mg/l, stool B, Candida albicans) it was 1; in the experiment with free esterases in stools [2] (75 mg/l, stool B, Candida dubliniensis), 1; with free esterases in stools [2] (75 mg/l, stool B, Candida krusei) it was 1. Moreover, the Deposit coloration is 0 in the experiment on free esterases in stools [4] (75 mg/l, stool A) and 0 in the experiment on free esterases in stools [4] (75 mg/l, stool B).

As for `CCOP(=O)(OCC)Oc1ccc([N+](=O)[O-])cc1` [O,O-diethyl p-nitrophenyl phosphate], the Colonies coloration in the experiment on Salmonella Paratyphi A (Table 1, 1 mg/l, stool A) came to 1; with Salmonella Paratyphi A (Table 1, 1 mg/l, stool B), 1; with Salmonella Paratyphi A (Table 1, 5 mg/l, stool A), 1; with Salmonella Paratyphi A (Table 1, 5 mg/l, stool B) it was 1; in the experiment on Salmonella Paratyphi A (Table 1, 10 mg/l, stool A) it was 1; in the experiment with Salmonella Paratyphi A (Table 1, 10 mg/l, stool B) it was 1. The Colonies coloration in experiment [1] (5 mg/l, stool A) came to 0; in experiment [1] (5 mg/l, stool B), 0; in the experiment on Candida albicans (Table 4, 5 mg/l), 1; in the experiment on Candida dubliniensis [5] (stool A) it was 0.5; in the experiment on Candida dubliniensis [5] (stool B), 0.5. In addition, the Deposit coloration in the experiment on free esterases in stools [2] (5 mg/l, stool A, Candida albicans) turned out to be 1; in the experiment on free esterases in stools [2] (5 mg/l, stool A, Candida dubliniensis), 1; with free esterases in stools [2] (5 mg/l, stool A, Candida krusei) it was 1; in the experiment with free esterases in stools [2] (5 mg/l, stool B, Candida albicans), 1; in the experiment on free esterases in stools [2] (5 mg/l, stool B, Candida dubliniensis) it was 1; in the experiment with free esterases in stools [2] (5 mg/l, stool B, Candida krusei), 1. Moreover, the Deposit coloration in the experiment on free esterases in stools [4] (5 mg/l, stool A) is 0; in the experiment on free esterases in stools [4] (5 mg/l, stool B), 0.

Regarding `COP(=O)(OC)Oc1ccc([N+](=O)[O-])cc1` [O,O-dimethyl p-nitrophenyl phosphate], the Colonies coloration in experiment [1] (25 mg/l, stool A) amounted to 0; in experiment [1] (25 mg/l, stool B) it was 0; in the experiment on Candida albicans (Table 4, 25 mg/l), 1; in the experiment with Candida dubliniensis [3] (Table 4, 25 mg/l, stool A) it was 1; with Candida dubliniensis [3] (Table 4, 25 mg/l, stool B) it was 1. The Deposit coloration came out at 1 in the experiment with free esterases in stools [2] (25 mg/l, stool A, Candida albicans); 1 in the experiment on free esterases in stools [2] (25 mg/l, stool A, Candida dubliniensis); 1 in the experiment with free esterases in stools [2] (25 mg/l, stool A, Candida krusei); 1 in the experiment on free esterases in stools [2] (25 mg/l, stool B, Candida albicans); 1 in the experiment with free esterases in stools [2] (25 mg/l, stool B, Candida dubliniensis); 1 in the experiment on free esterases in stools [2] (25 mg/l, stool B, Candida krusei). Further, the Deposit coloration is reported as 0 with free esterases in stools [4] (25 mg/l, stool A) and 0 in the experiment with free esterases in stools [4] (25 mg/l, stool B).
